In PubChem BioAssay (NCI):
In brackets after ≈: the same amount, converted by molar mass.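 48-hour exposure; five concentrations; linearly interpolated endpoints. At the GI50, growth is halved. At the TGI there is no net growth.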

How the values were obtained:
Experiment in all cases: NCI tumour cell line growth inhibition, 48 h
KM20L2 colon = test system: KM20L2 colon
M19-MEL melanoma = test system: M19-MEL melanoma
DLD-1 colon = test system: DLD-1 colon
SN12K1 renal = test system: SN12K1 renal
DMS 114 small cell lung = test system: DMS 114 small cell lung
P388/ADR leukemia = test system: P388/ADR leukemia
HOP-18 NSCLC = test system: HOP-18 NSCLC
SK-OV-3 ovarian = test system: SK-OV-3 ovarian
NCI-H522 lung = test system: NCI-H522 lung
EKVX NSCLC = test system: EKVX NSCLC
HOP-62 NSCLC = test system: HOP-62 NSCLC
NCI/ADR-RES ovarian = test system: NCI/ADR-RES ovarian
MDA-MB-231 breast = test system: MDA-MB-231 breast
SR leukemia = test system: SR leukemia
MDA-MB-435 = test system: MDA-MB-435
M14 melanoma = test system: M14 melanoma
ACHN renal = test system: ACHN renal

SMILES: Cc1cc(O)c2c(c1)C(=O)c1c(c(O)cc(O)c1-c1c(O)cc(O)c3c1C(=O)c1cc(C)cc(O)c1C3=O)C2=O
- TGI (KM20L2 colon): 52.2 µM
- TGI (M19-MEL melanoma): 59.4 µM
- TGI (DLD-1 colon): 59.5 µM
- TGI (SN12K1 renal): 39.9 µM
- TGI (DMS 114 small cell lung): 63 µM
- TGI (P388/ADR leukemia): 99.8 µM
- TGI (HOP-18 NSCLC): 39.9 µM
- TGI (SK-OV-3 ovarian): 62.6 µM
- TGI (NCI-H522 lung): 59 µM
- TGI (EKVX NSCLC): 34.9 µM
- TGI (HOP-62 NSCLC): 32.3 µM
- TGI (NCI/ADR-RES ovarian): 152 µM

SMILES: CC1(C)OCC(CO)(CO)CO1
- TGI (MDA-MB-231 breast): > 100 µM
- TGI (SR leukemia): > 100 µM
- TGI (MDA-MB-435): > 100 µM
- TGI (M14 melanoma): > 100 µM
- TGI (ACHN renal): > 100 µM
- TGI (SK-OV-3 ovarian): > 100 µM
- TGI (NCI-H522 lung): > 100 µM
- TGI (NCI/ADR-RES ovarian): > 100 µM

SMILES: Cc1nc2nc(C)n(CCN3CCOCC3)c(=O)c2c(-c2cccc([N+](=O)[O-])c2)c1C(=O)CCCCCCCCCCN1CCC(c2ccccc2)(c2ccccc2)CC1
- GI50 (MDA-MB-231 breast): 1.68 µg/mL (≈ 2.07 µM)
- TGI (MDA-MB-231 breast): 3.53 µg/mL
- GI50 (MDA-MB-435): 1.9 µg/mL (≈ 2.34 µM)
- TGI (MDA-MB-435): 3.79 µg/mL
- GI50 (HOP-62 NSCLC): 2.07 µg/mL (≈ 2.55 µM)
- TGI (HOP-62 NSCLC): 4.06 µg/mL

SMILES: ICC1CCCO1 (stereo not drawn)
- TGI (SR leukemia): > 100 µM
- TGI (KM20L2 colon): > 100 µM
- TGI (M14 melanoma): > 100 µM
- TGI (DLD-1 colon): > 100 µM
- TGI (DMS 114 small cell lung): > 100 µM
- TGI (HOP-18 NSCLC): > 100 µM
- TGI (ACHN renal): > 100 µM
- TGI (EKVX NSCLC): > 100 µM

SMILES: CCOP(=O)(C/C=C/Cn1ncc(=O)[nH]c1=O)OCC
- TGI (MDA-MB-231 breast): > 100 µM
- TGI (MDA-MB-435): > 100 µM
- TGI (M14 melanoma): > 100 µM
- TGI (ACHN renal): > 100 µM
- TGI (NCI-H522 lung): > 100 µM
- TGI (EKVX NSCLC): > 100 µM
- TGI (HOP-62 NSCLC): > 100 µM
- TGI (NCI/ADR-RES ovarian): > 100 µM

SMILES: O=C=C=P(c1ccccc1)(c1ccccc1)c1ccccc1
- TGI (SR leukemia): > 100 µM
- TGI (M19-MEL melanoma): > 100 µM
- TGI (M14 melanoma): > 100 µM
- TGI (DLD-1 colon): > 100 µM
- TGI (DMS 114 small cell lung): > 100 µM
- TGI (HOP-18 NSCLC): > 100 µM
- TGI (ACHN renal): > 100 µM
- TGI (SK-OV-3 ovarian): > 100 µM
- TGI (EKVX NSCLC): > 100 µM

SMILES: CC(C)c1oc(=O)cc2c1C(O)C1OC(=O)C3(C)C(O)C4OC4C2(C)C13 (stereo not drawn)
- TGI (KM20L2 colon): 12.8 µM
- TGI (M19-MEL melanoma): 7.75 µM
- TGI (DLD-1 colon): 8.57 µM
- TGI (SN12K1 renal): 9.37 µM
- TGI (DMS 114 small cell lung): 6.31 µM
- TGI (P388/ADR leukemia): 16.6 µM
- TGI (HOP-18 NSCLC): 24.3 µM
- TGI (SK-OV-3 ovarian): 20.3 µM
- TGI (NCI-H522 lung): 5.21 µM
- TGI (EKVX NSCLC): 9.84 µM
- TGI (HOP-62 NSCLC): 9.27 µM
- TGI (NCI/ADR-RES ovarian): 96.9 µM

SMILES: C=C1CC(OC)(C(OC)C(=O)N[C@H]2OCO[C@H]3C2O[C@H](C[C@@H](COC)OC)C(C)(C)C3OC)O[C@H](C)[C@@H]1C (stereo partly drawn)
- TGI (KM20L2 colon): > 47 µM
- TGI (M19-MEL melanoma): 5.93 µM
- TGI (DLD-1 colon): 9.33 µM
- TGI (SN12K1 renal): 15.2 µM
- TGI (DMS 114 small cell lung): 13.9 µM
- TGI (P388/ADR leukemia): 1.4 µM
- TGI (HOP-18 NSCLC): 23.9 µM
- TGI (SK-OV-3 ovarian): 8.12 µM
- TGI (HOP-62 NSCLC): 8.46 µM
- TGI (NCI/ADR-RES ovarian): > 47 µM
